Reference: publication PMC9945734 (BMC Medicine, 2023)
Where “and” joins values, the source holds several entries; their conditions need not be identical. Equal values may be shown once.

System: PC-3-KQ and PC-3-KR cells
Test: RNA-sequencing and differential gene expression
Type: cell-based, human
Set-up: CEP19 tpm_KQ_NTZ / CCNA1 tpm_KQ_NTZ / BTN3A3 tpm_KQ_NTZ / CAPSL tpm_KQ_NTZ / CELF3 tpm_KQ_NTZ / C5orf63 tpm_KQ_NTZ / tpm MSMP / tpm MYH7B / tpm CACNG8 / CNTNAP3B tpm_KQ_NTZ / IL21R tpm_KQ_NTZ / CYP8B1 tpm_KQ_NTZ / C2orf78 tpm_KQ_NTZ / CALB1 tpm_KQ_NTZ / COL4A3 tpm_KQ_NTZ / CFB tpm_KQ_NTZ / PFKFB1 tpm_KQ_NTZ / BTBD11 tpm_KQ_NTZ: scale not given here
[1] = PC-3-KQ cells with NTZ, RNA-Seq, replicates 1-3, listed as NTZ

Q: What does the source list for CC(=O)Oc1ccccc1C(=O)Nc1ncc([N+](=O)[O-])s1 [Nitazoxanide]?
A: reversed genes that were downregulated by KLF5^K369Q (5 μM, 48 h): 114 genes; reversed genes that were upregulated by KLF5^K369Q (5 μM, 48 h): 127 genes; differentially expressed genes whose KLF5^K369Q-modulated expression patterns were reversed (5 μM, 48 h, of 2836 differentially expressed genes): 241 genes; BTBD11 tpm_KQ_NTZ [1]: 0.02343 (2×) and -0.3135; BTN3A3 tpm_KQ_NTZ [1]: 0.1048 and 0.06849 and 0.4183; C2orf78 tpm_KQ_NTZ [1]: -0.1653 (2×) and -0.2557; C5orf63 tpm_KQ_NTZ [1]: -1.246 and -0.6828 (2×); CALB1 tpm_KQ_NTZ [1]: -0.5505 and -0.5318 and -0.6014; CAPSL tpm_KQ_NTZ [1]: 0.1399 and 0.07957 and 0.02817; CCNA1 tpm_KQ_NTZ [1]: 0.2896 and 0.0474 and -0.0329; CELF3 tpm_KQ_NTZ [1]: -0.6626 and -0.09641 and -1.398; CEP19 tpm_KQ_NTZ [1]: -0.2178 and -0.1674 and -0.2603; CFB tpm_KQ_NTZ [1]: 1.072 and 0.8732 and 1.006; CNTNAP3B tpm_KQ_NTZ [1]: -1.003 and -0.7486 and -1.333; COL4A3 tpm_KQ_NTZ [1]: 0.8606 and -0.008515 and 0.09381; CSF1R tpm_KQ_NTZ [1]: -0.4278 and 0.5782 and -0.287; CSF3 tpm_KQ_NTZ [1]: -0.1666 and -0.05545 and -0.03443; CYP8B1 tpm_KQ_NTZ [1]: 0.5351 and -0.06455 and 0.239; CYSTM1 tpm_KQ_NTZ [1]: 0.5286 and 0.6762 and 0.7083; DEPTOR tpm_KQ_NTZ [1]: -0.1625 and 0.109 and -0.5598; DISP1 tpm_KQ_NTZ [1]: 0.9822 and -0.1345 and 0.01324; DMC1 tpm_KQ_NTZ [1]: 0.2859 and -0.2731 and -0.5992; EFCAB6 tpm_KQ_NTZ [1]: -0.1794 and -0.1071 (2×); ESPN tpm_KQ_NTZ [1]: 0.1813 and 0.02389 and 0.09131; FA2H tpm_KQ_NTZ [1]: 0.4488 and 0.5616 and 0.5267; FAM43A tpm_KQ_NTZ [1]: 0.03072 and -0.121 and -0.09259; FAM83D tpm_KQ_NTZ [1]: -0.5519 and -0.6015 and -0.7989; FAM178B tpm_KQ_NTZ [1]: 0.08123 and 0.3901 and 0.3146; FANCI tpm_KQ_NTZ [1]: -0.4967 and -0.5797 and -1.118; FANCL tpm_KQ_NTZ [1]: -0.04507 and -0.1672 and -0.6878; FIBCD1 tpm_KQ_NTZ [1]: 0.8945 (2×) and 0.4936; FLI1 tpm_KQ_NTZ [1]: 0.163 and 0.09153 and 0.3476; FLRT1 tpm_KQ_NTZ [1]: 0.02501 and 0.1658 and 0.1094; FOXI1 tpm_KQ_NTZ [1]: -0.2315 and -0.3686 and -0.4151; FOXP3 tpm_KQ_NTZ [1]: -0.3022 and -0.9252 and -0.8607; FRY tpm_KQ_NTZ [1]: 0.3424 and 1.196 and 0.3898; FUT3 tpm_KQ_NTZ [1]: 0.2065 and 0.1078 and 0.1213; FZD4 tpm_KQ_NTZ [1]: -0.8248 and -0.9863 and -1.191; GBX2 tpm_KQ_NTZ [1]: 0.2922 and 0.1832 and -0.01058; GCNT3 tpm_KQ_NTZ [1]: 0.5624 and 1.46 and 1.425; GDPD3 tpm_KQ_NTZ [1]: 0.1549 and 0.8212 and 1.086; GPR19 tpm_KQ_NTZ [1]: -0.4052 and -1.088 and -0.1444; H3C1 tpm_KQ_NTZ [1]: -0.4909 and -0.7381 and -0.1713; HAS3 tpm_KQ_NTZ [1]: -0.7244 and -1.045 and -1.209; HSD3B1 tpm_KQ_NTZ [1]: 0.4147 and -0.0829 and 0.06266; HSPB8 tpm_KQ_NTZ [1]: 1.202 and 1.163 and 1.373; IFITM10 tpm_KQ_NTZ [1]: 0.594 and 0.6249 and 1.26; IGF2BP1 tpm_KQ_NTZ [1]: -0.6156 and 0.2139 and -0.1353; IGFBP4 tpm_KQ_NTZ [1]: -0.9714 and -1.052 and -1.107; IGSF23 tpm_KQ_NTZ [1]: 0.2138 and -0.14 and 0.153; IL1RN tpm_KQ_NTZ [1]: 0.4172 and 0.5103 and 0.3837; IL21R tpm_KQ_NTZ [1]: 0.1341 and 0.3531 and -0.6262; IL32 tpm_KQ_NTZ [1]: 0.1915 and 0.128 and 0.2784; IL36RN tpm_KQ_NTZ [1]: 0.2015 and -0.02405 and -0.08881; KDELR2 tpm_KQ_NTZ [1]: 0.386 and 0.3336 and 0.3028; KIAA0319 tpm_KQ_NTZ [1]: 0.8897 and 0.7646 and 0.5228; KLK9 tpm_KQ_NTZ [1]: -0.2259 and -0.6416 and -0.6693; KRT17 tpm_KQ_NTZ [1]: -0.1797 and -0.2377 and -0.2552; LGALS12 tpm_KQ_NTZ [1]: -0.7737 and -0.7092 and -1.317; LILRB3 tpm_KQ_NTZ [1]: -0.849 and 0.2071 and -0.3616; LOC105373989 tpm_KQ_NTZ [1]: 0.1747 and 0.1405 and -0.01628; LOC107985532 tpm_KQ_NTZ [1]: -0.4716 and -1.399 and -0.5849; LRRK1 tpm_KQ_NTZ [1]: 0.2201 and 0.2241 and -0.1686; LTB tpm_KQ_NTZ [1]: 0.298 and 0.1911 and 0.1215; LY6K tpm_KQ_NTZ [1]: 0.361 and 0.2663 and 0.3215; MAP2 tpm_KQ_NTZ [1]: 1.038 and 0.7956 and 0.3906; MCM4 tpm_KQ_NTZ [1]: -0.8715 and -0.9161 and -1.036; METRNL tpm_KQ_NTZ [1]: -0.141 and -0.421 and -0.3102; MFSD2A tpm_KQ_NTZ [1]: 0.8546 and 0.3607 and 0.5375; MMP9 tpm_KQ_NTZ [1]: 0.4129 and 0.2062 and 0.3482; MNX1 tpm_KQ_NTZ [1]: 0.2275 and -0.9 and 0.1118; MROH8 tpm_KQ_NTZ [1]: -1.87 and -0.2315 and 0.3664; MVP tpm_KQ_NTZ [1]: 0.5977 and 0.4827 and 0.3544; MYBL2 tpm_KQ_NTZ [1]: -0.1727 and -0.165 and -0.155; NAV1 tpm_KQ_NTZ [1]: 0.9647 (2×) and 0.5494; NECTIN4 tpm_KQ_NTZ [1]: 1.229 and 1.239 and 1.198; NKD1 tpm_KQ_NTZ [1]: 0.09084 and 0.3652 and -0.1886; NLRC5 tpm_KQ_NTZ [1]: 0.9096 and 0.9955 and 0.3927; NR4A2 tpm_KQ_NTZ [1]: -0.3921 and 0.001744 and -0.3514; NRK tpm_KQ_NTZ [1]: -0.02829 and -0.09407 and -0.0544
